Data: PubChem BioAssay AID1259407 (Chemical Carcinogenesis Research Information System (CCRIS), 2018)
Calls of active or inactive are those of the source. No rule for the calls is given here.

System: CCRIS mutagenicity, Ames/micronucleus/aberration tests
Assay: CCRIS mutagenicity studies
[1] = Test System: AMES SALMONELLA TYPHIMURIUM, Strain/Indicator: TA98, Metabolic Activation: NONE, Method: PREINCUBATION
[2] = Test System: AMES SALMONELLA TYPHIMURIUM, Strain/Indicator: TA100, Metabolic Activation: NONE, Method: PREINCUBATION
[3] = Test System: AMES SALMONELLA TYPHIMURIUM, Strain/Indicator: TA100, Metabolic Activation: NONE, Method: STANDARD PLATE
[4] = Test System: AMES SALMONELLA TYPHIMURIUM, Strain/Indicator: TA100, Metabolic Activation: RAT, LIVER, S-9, AROCLOR 1254, Method: STANDARD PLATE
[5] = Test System: AMES SALMONELLA TYPHIMURIUM, Strain/Indicator: TA97, Metabolic Activation: NONE, Method: STANDARD PLATE
[6] = Test System: AMES SALMONELLA TYPHIMURIUM, Strain/Indicator: TA98, Metabolic Activation: NONE, Method: STANDARD PLATE
[7] = Test System: AMES SALMONELLA TYPHIMURIUM, Strain/Indicator: TA1535, Metabolic Activation: NONE, Method: STANDARD PLATE
[8] = Test System: AMES SALMONELLA TYPHIMURIUM, Strain/Indicator: TA98, Metabolic Activation: RAT, LIVER, S-9, AROCLOR 1254, Method: STANDARD PLATE
[9] = Test System: AMES SALMONELLA TYPHIMURIUM, Strain/Indicator: TA1535, Metabolic Activation: RAT, LIVER, S-9, AROCLOR 1254, Method: STANDARD PLATE
[10] = Test System: AMES SALMONELLA TYPHIMURIUM, Strain/Indicator: TA1537, Metabolic Activation: NONE, Method: STANDARD PLATE
[11] = Test System: AMES SALMONELLA TYPHIMURIUM, Strain/Indicator: TA1537, Metabolic Activation: RAT, LIVER, S-9, AROCLOR 1254, Method: STANDARD PLATE
[12] = Test System: AMES SALMONELLA TYPHIMURIUM, Strain/Indicator: TA1538, Metabolic Activation: NONE, Method: STANDARD PLATE
[13] = Test System: AMES SALMONELLA TYPHIMURIUM, Strain/Indicator: TA1538, Metabolic Activation: RAT, LIVER, S-9, AROCLOR 1254, Method: STANDARD PLATE

## CC(=O)Nc1cccc(C)c1
Test System: AMES SALMONELLA TYPHIMURIUM, Strain/Indicator: TA97, Metabolic Activation: HAMSTER, LIVER, S-9, AROCLOR 1254 (10 OR 30%), Method: PREINCUBATION
  mutagenic call: inactive; negative
Test System: AMES SALMONELLA TYPHIMURIUM, Strain/Indicator: TA97, Metabolic Activation: NONE, Method: PREINCUBATION
  mutagenic call: inactive; negative
Test System: AMES SALMONELLA TYPHIMURIUM, Strain/Indicator: TA97, Metabolic Activation: RAT, LIVER, S-9, AROCLOR 1254 (10 OR 30%), Method: PREINCUBATION
  mutagenic call: inactive; negative
Test System: AMES SALMONELLA TYPHIMURIUM, Strain/Indicator: TA98, Metabolic Activation: HAMSTER, LIVER, S-9, AROCLOR 1254 (10 OR 30%), Method: PREINCUBATION
  mutagenic call: inactive; negative
[1]
  mutagenic call: inactive; negative
Test System: AMES SALMONELLA TYPHIMURIUM, Strain/Indicator: TA98, Metabolic Activation: RAT, LIVER, S-9, AROCLOR 1254 (10 OR 30%), Method: PREINCUBATION
  mutagenic call: inactive; negative
Test System: AMES SALMONELLA TYPHIMURIUM, Strain/Indicator: TA100, Metabolic Activation: HAMSTER, LIVER, S-9, AROCLOR 1254 (10 OR 30%), Method: PREINCUBATION
  mutagenic call: inactive; negative
[2]
  mutagenic call: inactive; negative
Test System: AMES SALMONELLA TYPHIMURIUM, Strain/Indicator: TA100, Metabolic Activation: RAT, LIVER, S-9, AROCLOR 1254 (10 OR 30%), Method: PREINCUBATION
  mutagenic call: inactive; negative
Test System: AMES SALMONELLA TYPHIMURIUM, Strain/Indicator: TA1535, Metabolic Activation: HAMSTER, LIVER, S-9, AROCLOR 1254 (10 OR 30%), Method: PREINCUBATION
  mutagenic call: inactive; negative
Test System: AMES SALMONELLA TYPHIMURIUM, Strain/Indicator: TA1535, Metabolic Activation: NONE, Method: PREINCUBATION
  mutagenic call: inactive; negative
Test System: AMES SALMONELLA TYPHIMURIUM, Strain/Indicator: TA1535, Metabolic Activation: RAT, LIVER, S-9, AROCLOR 1254 (10 OR 30%), Method: PREINCUBATION
  mutagenic call: inactive; negative

## Cc1cccc2c1ccc1cc(C(C)C)ccc12
[3]
  mutagenic call: inactive; negative
[4]
  mutagenic call: inactive; negative

## O=C(NCCCl)Sc1ncnc2nc[nH]c12
[5]
  mutagenic call: inactive; negative
Test System: AMES SALMONELLA TYPHIMURIUM, Strain/Indicator: TA97, Metabolic Activation: RAT, LIVER, S-9, PHENOBARBITAL AND ALPHA-NAPHTHOFLAVONE, Method: STANDARD PLATE
  mutagenic call: inactive; negative
[6]
  mutagenic call: inactive; negative
Test System: AMES SALMONELLA TYPHIMURIUM, Strain/Indicator: TA98, Metabolic Activation: RAT, LIVER, S-9, PHENOBARBITAL AND ALPHA-NAPHTHOFLAVONE, Method: STANDARD PLATE
  mutagenic call: inactive; negative
[3]
  mutagenic call: inactive; negative
Test System: AMES SALMONELLA TYPHIMURIUM, Strain/Indicator: TA100, Metabolic Activation: RAT, LIVER, S-9, PHENOBARBITAL AND ALPHA-NAPHTHOFLAVONE, Method: STANDARD PLATE
  mutagenic call: inactive; negative
[7]
  mutagenic call: active; positive
Test System: AMES SALMONELLA TYPHIMURIUM, Strain/Indicator: TA1535, Metabolic Activation: RAT, LIVER, S-9, PHENOBARBITAL AND ALPHA-NAPHTHOFLAVONE, Method: STANDARD PLATE
  mutagenic call: active; positive

## O=S(=O)(Nc1cccc(Cl)c1)c1cccc2cccnc12
[6]
  mutagenic call: inactive; negative
[8]
  mutagenic call: inactive; negative
[3]
  mutagenic call: inactive; negative
[4]
  mutagenic call: inactive; negative
[7]
  mutagenic call: inactive; negative
[9]
  mutagenic call: inactive; negative
[10]
  mutagenic call: inactive; negative
[11]
  mutagenic call: inactive; negative

## Cc1ccc(C(C)(C)C)c(O)c1C(O)c1ncc([N+](=O)[O-])n1C (centres undefined)
[6]
  mutagenic call: inactive; negative
Test System: AMES SALMONELLA TYPHIMURIUM, Strain/Indicator: TA 98, Metabolic Activation: RAT, LIVER, S-9, AROCLOR 1254, Method: STANDARD PLATE
  mutagenic call: inactive; negative
[3]
  mutagenic call: inactive; negative
[4]
  mutagenic call: inactive; negative
[7]
  mutagenic call: inactive; negative
[9]
  mutagenic call: inactive; negative
[10]
  mutagenic call: inactive; negative
[11]
  mutagenic call: inactive; negative
[12]
  mutagenic call: inactive; negative
[13]
  mutagenic call: inactive; negative

## CC(=O)Nc1ccc(OC(=O)c2ccccc2OC(C)=O)cc1
[5]
  mutagenic call: inactive; negative
Test System: AMES SALMONELLA TYPHIMURIUM, Strain/Indicator: TA97, Metabolic Activation: RAT, LIVER, S-9, AROCLOR 1254, Method: STANDARD PLATE
  mutagenic call: inactive; negative
[6]
  mutagenic call: inactive; negative
[8]
  mutagenic call: inactive; negative
[3]
  mutagenic call: inactive; negative
[4]
  mutagenic call: inactive; negative
[7]
  mutagenic call: inactive; negative
[9]
  mutagenic call: inactive; negative
[10]
  mutagenic call: inactive; negative
[11]
  mutagenic call: inactive; negative
[12]
  mutagenic call: inactive; negative
[13]
  mutagenic call: inactive; negative

## N#Cc1cccc(/C=C\c2ccc([N+](=O)[O-])cc2)c1
Test System: AMES SALMONELLA TYPHIMURIUM, Strain/Indicator: TA98(NR), Metabolic Activation: NONE, Method: STANDARD PLATE
  mutagenic call: active; positive
Test System: AMES SALMONELLA TYPHIMURIUM, Strain/Indicator: TA98 (NR), Metabolic Activation: S-9, Method: STANDARD PLATE
  mutagenic call: active; positive
[6]
  mutagenic call: active; positive
Test System: AMES SALMONELLA TYPHIMURIUM, Strain/Indicator: TA98, Metabolic Activation: S-9, Method: STANDARD PLATE
  mutagenic call: active; positive
Test System: AMES SALMONELLA TYPHIMURIUM, Strain/Indicator: TA100 (NR), Metabolic Activation: NONE, Method: STANDARD PLATE
  mutagenic call: inactive; negative
Test System: AMES SALMONELLA TYPHIMURIUM, Strain/Indicator: TA100 (NR), Metabolic Activation: S-9, Method: STANDARD PLATE
  mutagenic call: inactive; negative
[3]
  mutagenic call: active; positive
Test System: AMES SALMONELLA TYPHIMURIUM, Strain/Indicator: TA100, Metabolic Activation: S-9, Method: STANDARD PLATE
  mutagenic call: active; positive

## O=[N+]([O-])c1ccc(-c2csc(Cl)n2)o1
Test System: E. COLI, Strain/Indicator: WP2, Metabolic Activation: NONE, Method: SPOT
  mutagenic call: active; positive
Test System: E. COLI, Strain/Indicator: WP2 UVRA, Metabolic Activation: NONE, Method: SPOT
  mutagenic call: active; positive

## Cc1cccc2cc3ccc4ccccc4c3nc12
Test System: AMES SALMONELLA TYPHIMURIUM, Strain/Indicator: TA97A, Metabolic Activation: NONE, Method: PREINCUBATION
  mutagenic call: inactive; negative
[1]
  mutagenic call: inactive; negative
[2]
  mutagenic call: inactive; negative
Test System: AMES SALMONELLA TYPHIMURIUM, Strain/Indicator: TA102, Metabolic Activation: NONE, Method: PREINCUBATION
  mutagenic call: inactive; negative

## Cc1cccc2ccc3c4ccccc4ccc3c12
Test System: AMES SALMONELLA TYPHIMURIUM, Strain/Indicator: TA100, Metabolic Activation: RAT, LIVER, MICROSOMES, 4-METHYLCHRYSENE, Method: STANDARD PLATE
  mutagenic call: inactive; negative
Test System: AMES SALMONELLA TYPHIMURIUM, Strain/Indicator: TA100, Metabolic Activation: RAT, LIVER, MICROSOMES, AROCLOR 1254, Method: STANDARD PLATE
  mutagenic call: active; positive
Test System: AMES SALMONELLA TYPHIMURIUM, Strain/Indicator: TA100, Metabolic Activation: RAT, LIVER, MICROSOMES, Method: STANDARD PLATE
  mutagenic call: inactive; negative
